Laboratory results as given in US20240058328A1, “MASITINIB FOR THE TREATMENT OF ALZHEIMER'S DISEASE” (AB SCIENCE, priority 2020, published 2024).

Test system: patients with Alzheimer's disease
Experiment: Phase 3 study AB09004: change from baseline in ADCS-ADL score
Format: in vivo, human
Design: key to δLSM (ADCS-ADL): LSM difference in ADCS-ADL change; positive = improvement
Conditions: 4.5 mg/kg/day; for ΔLSM (ADCS-ADL): vs placebo, week 24; for δLSM (ADCS-ADL): week 24 from baseline
Procedure: An international, multicenter, randomized, double-blind, placebo-controlled phase 3 study was conducted with the objective to evaluate oral masitinib at a dose of 4.5 mg/kg/day as a treatment for Alzheimer's disease.
Eligible patients, aged at least 50 years, were diagnosed with dementia of Alzheimer's type according to Diagnostic and Statistical Manual of Mental Disorders (DSM)-IV criteria, and probable Alzheimer's disease according to NINCDS-ADRDA (National Institute of Neurological and Communicative Diseases and Stroke/Alzheimer's Disease and Related Disorders Association) criteria. […] Patients with any other cause of dementia not due to Alzheimer's disease were ineligible for the study.
Eligible patients were treated during 24 weeks with masitinib at a dose of 4.5 mg/kg/day (mg per kilo body weight per day) or with placebo. Treatment was administered as add-on therapy in patients who had been treated for a minimum of 6 months with a stable dose of cholinesterase inhibitors (donepezil, rivastigmine or galantamine) and/or memantine, with no changes foreseen in therapy throughout the study.
Primary analysis was based on the co-primary endpoints of: • Change from baseline in Alzheimer's Disease Cooperative Study Activities of Daily Living (ADCS-ADL) score. The ADCS-ADL assesses the competence of patients with Alzheimer's disease in basic and instrumental activities of daily living (ADLs). • Change from baseline in Alzheimer's Disease Assessment Scale-Cognitive Subscale (ADAS-Cog). The ADAS-Cog assesses cognition and memory.
Treatment effect (masitinib versus placebo) was assessed based on absolute change from baseline to week 24 by using an analysis of covariance model (ANCOVA linear model) with the following factors: treatment, baseline value, and stratification criteria of baseline MMSE score, age, ADCS-ADL total score, and ADAS-Cog total score.
For ADCS-ADL, the global score (i.e., the sum of 23 items rated by the caregiver) was used with a range from 0 to 78, wherein 78 implies full functioning with no impairment. Thus, a higher score signifies greater functional ability, while a lower score signifies greater (worse) impairment. Results are expressed as a least-squares means difference (δLSM) of absolute change in ADCS-ADL score from baseline; that is to say, the change over time in the ADCS-ADL score, or in other words the difference between the ADCS-ADL score at baseline (before treatment initiation) and the ADCS-ADL score after treatment with masitinib or with placebo. An increase in ADCS-ADL score with respect to baseline (i.e., a positive δLSM) indicates an improvement in the patient and therefore disease stability, whereas a decrease in ADCS-ADL score with respect to baseline (i.e., negative δLSM) indicates a worsening in the patient and therefore disease progression. Treatment-effect is reported as the difference between treatment-arms (ΔLSM) (calculated as δLSM[masitinib] minus δLSM[placebo]), with a positive value indicating a beneficial effect of treatment with masitinib as compared to treatment with placebo. In a scenario where both treatment-arms show worsening in activities of daily living (i.e., a negative δLSM), then a positive ΔLSM indicates a beneficial treatment effect for masitinib, i.e., the rate of decline in masitinib treated patients is slower than that of patients from the placebo-arm.
The comparison was carried out using the following information: • δLSM: least-squares means difference of absolute change in endpoint score at week 24 from baseline, either according to ADAS-Cog assessment or to ADCS-ADL assessment. • ΔLSM: Difference between treatment-arms (treatment-effect) calculated as δLSM[masitinib] minus δLSM[placebo]. • Δsub/Δoverall: Ratio of subpopulation's placebo-controlled treatment-effect (ΔLSM at W24 for masitinib 4.5 mg/kg/d parallel arm) versus overall study population's placebo-controlled treatment-effect (ΔLSM at W24 for masitinib 4.5 mg/kg/d parallel arm). […]

[1] = Baseline ADCS-ADL >47 (Table 11)

For `Cc1ccc(NC(=O)c2ccc(CN3CCN(C)CC3)cc2)cc1Nc1nc(-c2cccnc2)cs1` [masitinib, 4-(4-methylpiperazin-1-ylmethyl)-N-[4-methyl-3-(4-pyridin-3ylthiazol-2-ylamino)phenyl]benzamide], the “ΔLSM (ADCS-ADL)” value (Baseline ADAS-Cog >35) was −0.788 points, the “ΔLSM (ADCS-ADL)” value (Baseline ADCS-ADL <32) was −0.9123 points and the “δLSM (ADCS-ADL)” value (Baseline ADCS-ADL <32) was 0.8656. For the same molecule, the “ΔLSM (ADCS-ADL)” value (Baseline ADCS-ADL <35) was 0.2942 points, the “δLSM (ADCS-ADL)” value (Baseline ADCS-ADL <35) was 0.9816 and the “ΔLSM (ADCS-ADL)” value (Baseline ADCS-ADL <38) was −0.2109 points. The “δLSM (ADCS-ADL)” value (Baseline ADCS-ADL <38) was 1.9901, the “ΔLSM (ADCS-ADL)” value (Baseline ADCS-ADL <41) was 1.0592 points and the “δLSM (ADCS-ADL)” value (Baseline ADCS-ADL <41) was 3.2426. For the same molecule, the “ΔLSM (ADCS-ADL)” value (Baseline ADCS-ADL <47) was 0.9542 points, the “δLSM (ADCS-ADL)” value (Baseline ADCS-ADL <47) was 2.0776 and the “ΔLSM (ADCS-ADL)” value (Baseline ADCS-ADL <50) was “+0.3062 points”. For the same molecule, the “ΔLSM (ADCS-ADL)” value (Baseline ADCS-ADL <50, listed as M4.5, 4.5 mg/kg/day) was 0.3062 points, the “δLSM (ADCS-ADL)” value (Baseline ADCS-ADL <50) was 1.5300 and the “ΔLSM (ADCS-ADL)” value (Baseline ADCS-ADL >39) was “+2.0733 points”. For the same molecule, the “ΔLSM (ADCS-ADL)” value (Baseline ADCS-ADL >39, listed as M4.5, 4.5 mg/kg/day) was 2.0733 points, the “δLSM (ADCS-ADL)” value (Baseline ADCS-ADL >39) was 0.6655 and the “ΔLSM (ADCS-ADL)” value [1] was 2.1676 points. For the same molecule, the “δLSM (ADCS-ADL)” value [1] was 1.0869, the “ΔLSM (ADCS-ADL)” value (Baseline ADCS-ADL >55) was “+3.1871 points” and the “ΔLSM (ADCS-ADL)” value (Baseline ADCS-ADL >55, listed as M4.5, 4.5 mg/kg/day) was 3.1871 points. For the same molecule, the “δLSM (ADCS-ADL)” value (Baseline ADCS-ADL >55) was 0.8306, the “ΔLSM (ADCS-ADL)” value (Baseline ADCS-ADL ≤39) was “+0.7132 points” and the “ΔLSM (ADCS-ADL)” value (Baseline ADCS-ADL ≤39, listed as M4.5, 4.5 mg/kg/day) was 0.7132 points. For the same molecule, the “δLSM (ADCS-ADL)” value (Baseline ADCS-ADL ≤39) was 2.8513, the “ΔLSM (ADCS-ADL)” value (Baseline ADCS-ADL ≤55) was “+0.4577 points” and the “ΔLSM (ADCS-ADL)” value (Baseline ADCS-ADL ≤55, listed as M4.5, 4.5 mg/kg/day) was 0.4577 points. The “δLSM (ADCS-ADL)” value (Baseline ADCS-ADL ≤55) was 1.3484, the “ΔLSM (ADCS-ADL)” value (Baseline ADCS-ADL ≥32) was 1.9799 points and the “δLSM (ADCS-ADL)” value (Baseline ADCS-ADL ≥32) was 0.9536. The “ΔLSM (ADCS-ADL)” value (Baseline ADCS-ADL ≥35) was 2.0209 points, the “δLSM (ADCS-ADL)” value (Baseline ADCS-ADL ≥35) was 0.9909 and the “ΔLSM (ADCS-ADL)” value (Baseline ADCS-ADL ≥38) was “+2.3285 points”. For the same molecule, the “ΔLSM (ADCS-ADL)” value (Baseline ADCS-ADL ≥38, listed as M4.5, 4.5 mg/kg/day) was 2.3285 points, the “δLSM (ADCS-ADL)” value (Baseline ADCS-ADL ≥38) was 1.0071 and the “ΔLSM (ADCS-ADL)” value (Baseline ADCS-ADL ≥41) was 2.0192 points. For the same molecule, the “δLSM (ADCS-ADL)” value (Baseline ADCS-ADL ≥41) was 0.8077, the “ΔLSM (ADCS-ADL)” value (Baseline ADCS-ADL ≥47) was 2.1676 points and the “δLSM (ADCS-ADL)” value (Baseline ADCS-ADL ≥47) was 1.0869. For the same molecule, the “ΔLSM (ADCS-ADL)” value (Baseline ADCS-ADL ≥50) was “+3.2315 points”, the “ΔLSM (ADCS-ADL)” value (Baseline ADCS-ADL ≥50, listed as M4.5, 4.5 mg/kg/day) was 3.2315 points and the “δLSM (ADCS-ADL)” value (Baseline ADCS-ADL ≥50) was 0.7638. The “ΔLSM (ADCS-ADL)” value (MMSE <13) was −9.2849 points, the “δLSM (ADCS-ADL)” value (MMSE <13) was −10.9758 and the “ΔLSM (ADCS-ADL)” value (MMSE <14) was −3.5751 points. For the same molecule, the “δLSM (ADCS-ADL)” value (MMSE <14) was −4.6507, the “ΔLSM (ADCS-ADL)” value (MMSE <15) was −0.5657 points and the “δLSM (ADCS-ADL)” value (MMSE <15) was −3.1413. The “ΔLSM (ADCS-ADL)” value (MMSE <16) was −0.6926 points, the “δLSM (ADCS-ADL)” value (MMSE <16) was −2.3199 and the “ΔLSM (ADCS-ADL)” value (MMSE <17) was 0.5605 points. The “δLSM (ADCS-ADL)” value (MMSE <17) was −1.0314, the “ΔLSM (ADCS-ADL)” value (MMSE [12-20]) was “+1.3770 points” and the “ΔLSM (ADCS-ADL)” value (MMSE [12-20], listed as M4.5, 4.5 mg/kg/day) was 1.3770 points.
